Measurements from US20230055705A1, “SUBSTITUTED THIOPHENE CARBOXAMIDES AND DERIVATIVES THEREOF” (Bayer Aktiengesellschaft, priority 2019, published 2023).

tested on: Pseudomonas syringae pv. tomato; test: Pseudomonas syringae pv. tomato in vitro cell test; assay type: cell-based; settings: 20 ppm of active ingredient, 24 h incubation, read-out: efficacy (inhibition of bacteria growth)
Experimental: Culture medium: LB broth medium (Luria Broth Miller) Sigma
Inoculum: bacteria suspension
Compounds were solubilized in DMSO and the solution used to prepare the required range of concentrations. The final concentration of DMSO used in the assay was 1%.
(§1) Inoculum was prepared from a pre-culture of bacteria grown in liquid medium and diluted to the desired optical density (OD).
(§2) Compounds were evaluated for their ability to inhibit bacteria growth in liquid culture assay. The compounds were added in the desired concentrations to culture medium containing the bacteria suspension. After 24 h of incubation, the efficacy of compounds was determined by spectrometric measurement of bacteria growth. Inhibition was determined by comparing the absorbance values in wells containing the compounds with the absorbance in control wells without active ingredients.

Structure (SMILES) | inhibition at 20 ppm [%]
COC(=O)[C@H](CC(=O)OC(C)(C)C)NC(=O)c1sc(Cl)c(Cl)c1Cl [I.136] | ≤ 30
CCOC(=O)C[C@H](NC(=O)c1sc(Cl)c(Cl)c1Cl)C(=O)OCC [I.138] | ≤ 30

tested on: Peronospora parasitica; test: In vivo preventive test on Peronospora parasitica (Crucifer downy mildew); settings: Hyaloperonospora parasitica, in Brassica oleracea, 120 h, 31 ppm of active ingredient, cabbage, evaluated 5 days after inoculation, read-out: efficacy
Experimental: (§3) The tested active ingredients were prepared by homogenization in a mixture of acetone/Dimethyl sulfoxide/Tween®, and then diluted with water to obtain the desired active material concentration. The young plants of cabbage were treated by spraying the active ingredient prepared as described above. Control plants were treated only with an aqueous solution of acetone/Dimethyl sulfoxide/Tween®.
After 72 hours, the plants were contaminated by spraying the leaves with an aqueous suspension of Peronospora parasitica spores. The contaminated cabbage plants were incubated for 5 days at 20° C. and at 100% relative humidity.
The test was evaluated 5 days after the inoculation. 0% means an efficacy which corresponds to that of the control plants while an efficacy of 100% means that no disease was observed.
Compounds CMP2 and CMP3 were tested in an in vivo preventive test on Peronospora parasitica (Crucifer downy mildew) in the same conditions as described in Example G.

Structure (SMILES) | pest or weed control at 31 ppm [%]
COC(=O)[C@H](CC(=O)OC(C)(C)C)NC(=O)c1sc(Cl)c(Cl)c1Cl [I.136] | 90 to 100
CCOC(=O)C[C@H](NC(=O)c1sc(Cl)c(Cl)c1Cl)C(=O)OCC [I.138] | 90 to 100

same assay, conditions: Hyaloperonospora parasitica, in Brassica oleracea, 120 h, 125 ppm of active ingredient, cabbage, evaluated 5 days after inoculation, read-out: efficacy

Structure (SMILES) | pest or weed control at 125 ppm [%]
COC(=O)[C@H](CC(=O)OC(C)(C)C)NC(=O)c1sc(Cl)c(Cl)c1Cl [I.136] | 90 to 100
CCOC(=O)C[C@H](NC(=O)c1sc(Cl)c(Cl)c1Cl)C(=O)OCC [I.138] | 90 to 100

tested on: salicylate responsive promoter sequence of the PR1 (pathogenesis-related protein I) gene (AT2G14610); test: Induction of defense gene expression in Arabidopsis thaliana (PR1 promoter-GFP reporter plants); assay type: in vivo; settings: Arabidopsis thaliana, 72 h; 75 ppm of compound; 3rd day after spraying; mock treated leaves set as 1.00; read-out: relative fluorescence value
Experimental: Arabidopsis thaliana reporter plants containing the coding sequence of a green fluorescent protein (GFP) linked to the salicylate responsive promoter sequence of the PR1 (pathogenesis-related protein I) gene (AT2G14610) were grown for five days and then sprayed with compounds. On the 3rd day after spraying, plant fluorescence was assessed with a MacroFluo instrument from Leica Microsystems (Wetzlar, Germany). Fluorescences were quantified with the Meta-Morph Microscopy Automation & Image Analysis Software (Molecular Devices, Sunnyvale, Calif., United States). Background fluorescence in mock treated leaves was set as 1.00.

Structure (SMILES) | fold induction at 75 ppm
COC(=O)[C@H](CC(=O)OC(C)(C)C)NC(=O)c1sc(Cl)c(Cl)c1Cl [I.136] | > 2
CCOC(=O)C[C@H](NC(=O)c1sc(Cl)c(Cl)c1Cl)C(=O)OCC [I.138] | > 2

same assay, conditions: Arabidopsis thaliana, 72 h; 300 ppm; 3rd day after spraying; mock treated leaves set as 1.00; read-out: relative fluorescence value

Structure (SMILES) | fold induction at 300 ppm
COC(=O)[C@H](CC(=O)OC(C)(C)C)NC(=O)c1sc(Cl)c(Cl)c1Cl [I.136] | > 2
CCOC(=O)C[C@H](NC(=O)c1sc(Cl)c(Cl)c1Cl)C(=O)OCC [I.138] | > 2

tested on: Alternaria alternata; test: Alternaria alternata in vitro cell test; assay type: cell-based; settings: 120 h, 20 ppm of active ingredient, 5 days incubation, read-out: efficacy (inhibition of fungal growth)
Experimental: • Solvent: DMSO • Culture medium: 14.6 g anhydrous D-glucose (VWR), 7.1 g Mycological Peptone (Oxoid), 1.4 g granulated Yeast Extract (Merck), QSP 1 liter • Inoculum: spores suspension
Fungicides were solubilized in DMSO and the solution used to prepare the required range of concentrations. The final concentration of DMSO used in the assay was ≤[…]1%.
A spore suspension of A. alternata was prepared and diluted to the desired spore density.
Fungicides were evaluated for their ability to inhibit spore germination and mycelium growth in liquid culture assay. The compounds were added in the desired concentration to the culture medium with spores. After 5 days incubation, fungi-toxicity of compounds was determined by spectrometric measurement of mycelium growth. Inhibition of fungal growth was determined by comparing the absorbance values in wells containing the fungicides with the absorbance in control wells without fungicides.

Structure (SMILES) | inhibition at 20 ppm [%]
COC(=O)[C@H](CC(=O)OC(C)(C)C)NC(=O)c1sc(Cl)c(Cl)c1Cl [I.136] | ≤ 30
CCOC(=O)C[C@H](NC(=O)c1sc(Cl)c(Cl)c1Cl)C(=O)OCC [I.138] | ≤ 30

tested on: Pseudomonas syringae pv. tomato; test: In vivo preventive test on Pseudomonas syringae pv. tomato (bacterial speck on tomato); settings: 31 ppm of active ingredient, evaluated 5 or 6 days after inoculation, read-out: efficacy
Experimental: as §3, with “tomato” for “cabbage”
After 72 hours, the plants were contaminated by spraying the leaves with an aqueous bacteria suspension of Pseudomonas syringae pv. tomato. The contaminated tomato plants were incubated for 4 days in saturated atmosphere at 22° C. day/20° C. night—70% HR and then for 1 or 2 days at 22° C. day/20° C. night at 70-80% relative humidity.
The test was evaluated 5 or 6 days after the inoculation. 0% means an efficacy which corresponds to that of the control plants while an efficacy of 100% means that no disease was observed.
Compounds CMP1 and CMP4 were tested in an in vivo preventive test on Pseudomonas syringae pv. tomato (bacterial speck on tomato) in the same conditions as described in Example J.

Structure (SMILES) | pest or weed control at 31 ppm [%]
CCOC(=O)C[C@H](NC(=O)c1sc(Cl)c(Cl)c1Cl)C(=O)OCC [I.138] | 90 to 100

tested on: Xanthomonas campestris pv. campestris; test: Xanthomonas campestris pv. campestris in vitro cell test; assay type: cell-based; settings: 20 ppm of active ingredient, 24 h incubation, read-out: efficacy (inhibition of bacteria growth)
Experimental: • Solvent: DMSO • Culture medium: LB broth medium (Luria Broth Miller) Sigma • Inoculum: bacteria suspension
Compounds were solubilized in DMSO and the solution used to prepare the required range of concentrations. The final concentration of DMSO used in the assay was ≤1%.
as §1, §2

Structure (SMILES) | inhibition at 20 ppm [%]
COC(=O)[C@H](CC(=O)OC(C)(C)C)NC(=O)c1sc(Cl)c(Cl)c1Cl [I.136] | ≤ 30
CCOC(=O)C[C@H](NC(=O)c1sc(Cl)c(Cl)c1Cl)C(=O)OCC [I.138] | ≤ 30

tested on: Xanthomonas campestris pv. campestris; test: In vivo preventive test on Xanthomonas campestris pv. campestris (black rot on cabbage); settings: 31 ppm of active ingredient, evaluated 8 or 10 days after inoculation, read-out: efficacy
Experimental: The tested active ingredients were prepared by homogenization in a mixture of acetone/Dimethyl sulfoxide/Tween®, and then diluted with water to obtain the desired active material concentration.
The young plants of cabbage were treated by spraying the active ingredient prepared as described above. Control plants were treated only with an aqueous solution of acetone/Dimethyl sulfoxide/Tween®.
After 72 hours, the plants were contaminated by spraying the leaves with an aqueous bacteria suspension of Xanthomonas campestris pv. campestris. The contaminated cabbage plants were incubated for 8 or 10 days at 27° C. at 95% relative humidity.
The test was evaluated 8 or 10 days after the inoculation. 0% means an efficacy which corresponds to that of the control plants while an efficacy of 100% means that no disease was observed. […]
Compounds CMP1, CMP2, CMP3 and CMP4 were tested in an in vivo preventive test on Xanthomonas campestris pv. campestris (black rot on cabbage) in the same conditions as described in Example H.

Structure (SMILES) | pest or weed control at 31 ppm [%]
COC(=O)[C@H](CC(=O)OC(C)(C)C)NC(=O)c1sc(Cl)c(Cl)c1Cl [I.136] | 80 to 89
CCOC(=O)C[C@H](NC(=O)c1sc(Cl)c(Cl)c1Cl)C(=O)OCC [I.138] | 70 to 79

same assay, conditions: 125 ppm of active ingredient, evaluated 8 or 10 days after inoculation, read-out: efficacy

Structure (SMILES) | pest or weed control at 125 ppm [%]
COC(=O)[C@H](CC(=O)OC(C)(C)C)NC(=O)c1sc(Cl)c(Cl)c1Cl [I.136] | 70 to 79

tested on: Uromyces appendiculatus; test: In vivo preventive test on Uromyces appendiculatus (bean rust); settings: 240 h, 125 ppm of active ingredient, evaluated 10 days after inoculation, read-out: efficacy
Experimental: as §3, with “bean” for “cabbage”
After 72 hours, the plants were contaminated by spraying the leaves with an aqueous suspension of Uromyces appendiculatus spores. The contaminated bean plants were incubated for 24 hours at 20° C. and at 100% relative humidity and then for 9 days at 20° C. and at 70-80% relative humidity. The test was evaluated 10 days after the inoculation. 0% means an efficacy which corresponds to that of the control plants while an efficacy of 100% means that no disease was observed.
Compounds CMP5 and CMP6 were tested in an in vivo preventive test on Uromyces appendiculatus (bean rust) in the same conditions as described in Example I.

Structure (SMILES) | pest or weed control at 125 ppm [%]
CCOC(=O)C[C@H](NC(=O)c1sc(Cl)c(Cl)c1Cl)C(=O)OCC [I.138] | 90 to 100

tested on: not listed separately; test: LogP by HPLC on reversed phase columns (EEC directive 79/831 Annex V.A8); assay type: physicochemical; settings: reversed phase HPLC columns, method [a]: LC-UV, acidic range, 0.1% formic acid in water and acetonitrile as eluent (linear gradient 10% to 95% acetonitrile)
Summary of the method: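 LogP derived from retention time by linear interpolation against a C3–C16 alkan-2-one calibration series of known LogP. Measured by HPLC on reversed-phase columns following EEC 79/831 Annex V.A8. UV spectra over 200–400 nm at signal peaks gave lambda-max.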

Structure (SMILES) | chromatographic logP
COC(=O)[C@H](CC(=O)OC(C)(C)C)NC(=O)c1sc(Cl)c(Cl)c1Cl [I.136] | 4.54
CCOC(=O)C[C@H](NC(=O)c1sc(Cl)c(Cl)c1Cl)C(=O)OCC [I.138] | 4.12
